Data on one compound can be found in patent publication US6867207B2, “IL-5 inhibiting 6-azauracil derivatives” (Janssen Pharmaceutica N.V., priority 1997, dated 2005).

What is called inhibition is the drop in the measured response relative to a control, in per cent. Broadly, the melting point is the temperature, or range, at which the solid turns liquid.

For one data set, the system named is IL-5 production. Kind of data set: In vitro inhibition of IL-5 production in human blood (phytohemagglutinin-stimulated whole blood, ELISA).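 Also: values marked with an asterisk were tested at 10 µM and unmarked values at 1 µM.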 It counts as cell-based. The following applies: test dose 1×10^−6 M, 48 hours, read-out: % inh. (percentage inhibition of IL-5 production). In short, it runs like this: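 Percent inhibition of IL-5, quantified by ELISA in cell-free supernatants, is given at a single dose of 1×10^−6 M (or 1×10^−5 M). Threefold-diluted human whole blood from healthy men received compound for 60 min at 37° C before 48 h PHA stimulation at 2 μg/mL.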

`O=c1cnn(-c2cc(Cl)c(C(c3ccc(Cl)cc3)c3nc(-c4ccccc4)no3)c(Cl)c2)c(=O)[nH]1` (racemic) [Compound 429, (±)-2-[3,5-dichloro-4-[(4-chlorophenyl)(3-phenyl-1,2,4-oxadiazol-5-yl)methyl]phenyl]-1,2,4-triazin-3,5(2H,4H)-dione] yielded a melting point of 128 °C. In the data set with IL-5 production, the inhibition at 1 µM worked out at 78%.
